pKi: −log10 of the molar value. A value given as a limit tells only on which side of the number the result lay.

This assay concerns the target Tyrosine-protein phosphatase non-receptor type 11, SHP-2 (Homo sapiens) (UniProt Q06124). The experiment in a line: Inhibitory activity against SH-domain containing phosphotyrosine phosphatase-2 (Tyrosine phosphatase SHP2) was determined.

Tyrosine-protein phosphatase non-receptor type 11, SHP-2 (Homo sapiens), sequence (Q06124 whole entry, looked up): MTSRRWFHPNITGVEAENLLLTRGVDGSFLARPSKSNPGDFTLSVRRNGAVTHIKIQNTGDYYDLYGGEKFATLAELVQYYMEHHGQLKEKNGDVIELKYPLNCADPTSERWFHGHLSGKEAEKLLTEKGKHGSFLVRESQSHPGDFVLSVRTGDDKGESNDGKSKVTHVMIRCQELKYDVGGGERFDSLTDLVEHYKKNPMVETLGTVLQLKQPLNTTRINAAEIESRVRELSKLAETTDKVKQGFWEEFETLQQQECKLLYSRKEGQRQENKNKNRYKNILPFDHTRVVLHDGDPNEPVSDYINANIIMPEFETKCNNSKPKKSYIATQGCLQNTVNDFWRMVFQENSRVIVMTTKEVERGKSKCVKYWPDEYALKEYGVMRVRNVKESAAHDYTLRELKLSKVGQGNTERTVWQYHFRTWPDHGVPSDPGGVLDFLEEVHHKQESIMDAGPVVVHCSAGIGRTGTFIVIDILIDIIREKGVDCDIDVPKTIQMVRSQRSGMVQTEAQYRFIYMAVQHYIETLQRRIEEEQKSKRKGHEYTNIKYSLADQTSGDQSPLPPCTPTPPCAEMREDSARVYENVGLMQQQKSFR

In general, pKi refers to −log10 of the Ki, conventionally taken in molar units. Read a high pKi as a low Ki. With `C=CCOC(=O)N[C@@H](Cc1ccc(N(C(=O)C(=O)O)c2ccccc2C(=O)O)cc1)C(=O)NCCCCOc1cccc(O)c1C(=O)OC` [(S)-2-(N-(4-(2-(allyloxycarbonylamino)-3-(4-(3-hydroxy-2-(methoxycarbonyl)phenoxy)butylamino)-3-oxopropyl)phenyl)-1-carboxyformamido)benzoic acid], the pKi was 4.02.

On to `CCc1cc(CC(NC(C)=O)C(=O)NCCCCOc2cc(Cl)cc(O)c2C(=O)OC)ccc1N(C(=O)C(=O)O)c1ccccc1C(=O)O` (configuration not stated) [2-[4-(2-Acetylamino-3-{4-[(2-carboxy-phenyl)-oxalyl-amino]-3-ethyl-phenyl}-propionylamino)-butoxy]-4-chloro-6-hydroxy-benzoic acid methyl ester], for which the pKi is less than 5.52.

The values are drawn from BindingDB's records for doi:10.1021/jm034088d (Abbott Laboratories, 2003).
